We go through nine compounds from patent EP2845588A1, “PIN1 inhibitors for use in the prevention and/or treatment of theileriosis, and related applications” (Centre National de la Recherche Scientifique (CNRS), priority 2013, dated 2015).

Like-named read-outs stand apart in the source and are kept apart here.

Test [1] concerns the target T1, PIN1 (Homo sapiens, UniProt Q13526). The note with it: cited from earlier work; for IC50: read-out: PIN1 inhibition IC50.
Test [2] concerns non-parasitized BL3 cells. The test is described as follows: Cell proliferation, live cell count after trypan blue exclusion, BL3. The test is classed as cell-based, bovine. The note with it: BL3 / uninfected cells. Here is the method: All infected bovine cell lines used in this study were previously described: TBL3 cells were derived from in vitro infection of the spontaneous bovine-B lymphosarcoma cell line, BL3, with Hissar stock of T.annulata. The TpMD409 lymphocyte cell line are infected with T. parva. The culture conditions of these cell lines were previously described by Moreau et al., 1999. Cells were cultured in RPMI 1640 (Gibco-BRL, Paisley, UK), supplemented with 10% heat-inactivated Fetal calf serum, 4mM L-Glutamine, 25mM HEPES, 10µM β-mercaptoethanol and 100µg/ml penicillin/streptomycin in a humidified 5%CO2 atmosphere at 37°C. HepG2, NIH/3T3 and MEF cells lines were cultured in DMEM (Gibco-BRL, Paisley, UK), supplemented with 10% heat-inactivated Fetal calf serum, 4mM L-Glutamine, 25 mM HEPES, 10µM β-mercaptoethanol and 100µg/ml penicillin/streptomycin in a humidified 5% CO2 atmosphere at 37°C. Cell numbers, as judged by Trypan Blue exclusion test, were determined by counting cells using a Countess automated cell counter (Invitrogen, CA, USA). The anti-parasite drug Buparvaquone (BW720c) was used at 200ng/ml for 72 hours. BW720c has no effect on growth of uninfected cells.
Cells were treated with either Juglone at 5 µM resuspended in Ethanol (Sigma, St Louis, MO, Ref.: H47003), or PiB at 1 µM resuspended in DMSO (Sigma, Ref.: B7688), or Dimethyloxalylglycine DMOG at 0.5 mM resuspended in DMSO (Tebu-bio, MO, USA).

The subject of test [3] is FBW7 and c-Jun mRNA in TBL3 cells. The test is described as follows: RT-qPCR of FBW7 and c-Jun mRNA in TBL3 cells. In kind it is cell-based, bovine. Here is the method: Total cellular RNAs were extracted using an RNeasy Plus Mini Kit (Qiagen, Hilden, Germany) and parasite RNAs were extracted using the classical Trizol Protocol. cDNA synthesis was performed with the Reverse Transcriptase Superscript III (Invitrogen, CA, USA).
Quantitative PCR amplification was performed in the ABI 7500 machine (Applied Biosystems, CA, USA) using the Sybr Green reagent (Applied Biosystems, CA, USA) using the primers listed in Table 5 below. The detection of a single product was verified by dissociation curve analysis. Relative quantities of mRNA were analyzed using the delta Ct method. The βactin qPCR was used for normalization. Table 5: qPCR primers
Background: Real-time PCR tracks product formation cycle by cycle.

Test [4] concerns the target T1, PIN1. To be noted: cited from earlier work.

T1 sequence (Q13526 whole entry): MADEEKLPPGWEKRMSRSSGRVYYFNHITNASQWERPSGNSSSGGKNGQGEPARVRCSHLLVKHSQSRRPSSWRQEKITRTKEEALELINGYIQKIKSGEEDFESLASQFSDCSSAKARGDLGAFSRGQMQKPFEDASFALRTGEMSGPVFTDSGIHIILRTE

As for `S=C(SC(=S)N1CCCCC1)N1CCCCC1` [1-Piperidinecarbodithioic acid, anhydrosulfide], in test [1], the IC50 – broadly, the concentration that gives 50% inhibition – is 4100 nM.

For `CN1C(=O)c2ccc3c4c(ccc(c24)C1=O)C(=O)N(C)C3=O` [2,7-Dimethylbenzo[Imn][3,8]phenanthroline-1,3,6,8(2H,7H)-tetrone], the IC50 in test [1] was 2000 nM.

As for `O=C1Nc2ccc([N+](=O)[O-])cc2/C1=C1/Nc2ccccc2/C1=N/O` [(3Z)-3-[(3Z)-3-hydroxyiminoindolin-2-ylidene]-5-nitro-indolin-2-one], in test [1] (cell prints neither Ki nor IC50), the “PIN1 inhibition (Ki and/or IC50)” value was 500 to 2500 nM.

In the case of `CCOC(=O)CN1C(=O)c2ccc3c4ccc5c6c(ccc(c7ccc(c2c37)C1=O)c64)C(=O)N(CC(=O)OCC)C5=O` [Diethyl 2,2'-(1,3,8,10-tetraoxo-1,3,8,10-tetrahydroisoquinolino[4 ',5',6':6,5,10]anthra[2,1,9-def]isoquinoline-2,9-diyl)diacetate], the IC50 in test [1] was 1500 nM.

Consider `CCOC(=O)CN1C(=O)c2cccc3cccc(c23)C1=O` [Ethyl (1,3-dioxo-1H-benzo[de]isoquinolin-2(3H)-yl)acetate], for which the IC50 in test [1] is 5000 nM.

On to `O=C1C=CC(=O)c2c(O)cccc21` [Juglone, 5-Hydroxy-1,4-naphthlenedione], for which the “proliferation of non-parasitized cells” value in test [2] is reported as “no effect”. Besides, the mRNA expression result in test [3] is on record as “no effect”.

Take “Ac-Lys(N-biotinoyl)-Ala-Ala-Bth-D-Thr(PO3H2)-Pip-Nal-Gln-NH2”: in test [4] (read-out: PIN1 inhibition Ki), the Ki is 1.2 nM.

Consider Ac-Phe-Phe-pSer-Ψ[(Z)CHdC]-Pro-Arg-NH2, for which the IC50 in test [4] (read-out: PIN1 inhibition IC50) is 1300 nM. The Ki in test [4] (read-out: PIN1 inhibition Kis) is 1740 nM.

Consider CRYPEVEIC, for which the Ki in test [4] (read-out: PIN1 inhibition Ki) was 520 nM.
